The values below are quoted from earlier work in patent publication US20010044101A1, “IN VITRO METHOD FOR PREDICTING THE EV[…] OF A PROTEIN TO A DRUG TARGETED THEREAGAINST” (priority 1994, published 2001).

The data set deals with HIV-1.

pIC50: −log10 of the molar value. Where two headings read alike, the source gives them in different places. Some results are limits rather than exact numbers.

As for “(-)-2′-deoxy-5-fluoro-3′-thiacytidine [FTC]”, the pIC50 is < 4.30 (fourth passage of the wild-type HIV-1 progeny, MT-4 cells, increasing FTC concentration, read-out: IC50 (50% inhibitory concentration)); < 3.60 (passage 6 virus, tested at higher compound concentrations, read-out: IC50); < 4.30 (second passage of the AZT-resistant HIV-1 progeny, MT-4 cells, increasing FTC concentration, read-out: IC50 (50% inhibitory concentration)).
